# Measured values as given in publication PMC3517777, “Phase I study of TP300 in patients with advanced solid tumors with pharmacokinetic, pharmacogenetic and pharmacodynamic analyses” (BMC Cancer, 2012).
# Like-named read-outs stand apart in the source and are kept apart here.
# Legend:
# [1] = Phase I dose escalation of TP300: toxicity (CTCAE v3.0), DLT, MTD; format: in vivo, human
# Protocol: TP300 was given as a 1-hour intravenous (i.v.) infusion, by peripheral venous catheter, every 3 weeks.
# (§1) The starting dose of 1 mg/m^2 was derived from single and repeat dose toxicity studies and represented one sixth of 0.3 mg/kg (6 mg/m^2), a dose tolerated without evidence of serious, irreversible or life-threatening toxicity in the most sensitive of the two species tested. Doses were doubled in subsequent cohorts until grade ≥2 toxicity was observed, whereupon a modified Fibonacci dose escalation scheme was used. In each cohort the first patient was required to complete 1 cycle before subsequent patients were entered. Intra-patient dose-escalation was not allowed.
# The MTD was the dose level below that at which ≥ 2 out of 3–6 patients experienced a DLT. Radiologic assessment of disease was performed every 2 cycles. Patients could remain on treatment if there was evidence of clinical benefit but were withdrawn from the study upon clinical or radiologic progression, unacceptable toxicity or withdrawal of consent.
# Toxicity was assessed weekly and graded using the National Cancer Institute Common Toxicity Criteria (CTCAE) version 3.0. DLT was defined as the occurrence of any of the following adverse events: grade 4 thrombocytopenia; febrile neutropenia or grade 4 neutropenia > 5 days duration; grade 4 diarrhoea not reduced to grade 1 within 2 days of appropriate therapy; other gastro-intestinal toxicities (e.g. vomiting, nausea, stomatitis) ≥ grade 3 and not reduced to grade 1 within 2 days of appropriate therapy; any other non-haematologic toxicities ≥ grade 3 (excluding alopecia).
# [2] = Plasma and urine pharmacokinetics after TP300 infusion (LC-MS/MS, non-compartmental); format: in vivo, human; conditions: for concentration at 1 h: human, in vivo, read-out: Plasma TP300 concentration 1 h after administration, mean
# Protocol: Venous blood (3 mL) was taken into sodium heparin tubes containing 30 μL of 46% citric acid, centrifuged 1500g at 4°C for 10 min and 1 mol/L hydrochloric acid was added (1:10) to plasma from each subject at 10 time points during cycle 1 (pre dose, then 1, 1.25, 1.5, 2, 3, 5, 8, 24, 48 hours after the start of administration) and stored at −70°C. Samples were processed by extraction of protein using addition of organic solvent containing internal standards and assayed by LC-MS/MS with a robust, sensitive and validated method for the simultaneous determination of a novel topoisomerase 1 inhibitor CH0793076 (TP3076), the prodrug CH4556300 (TP300), and the active metabolite CH0793011 (TP3011). All plasma had been acidified during collection to avoid the pH-based degradation of TP300 and to shift the equilibria of TP3076 and TP3011 between the lactone and carboxylate forms towards the lactone forms. After the plasma proteins were precipitated with methanol:acetonitrile:HCl 1M (50:50:1, v:v:v) containing stable isotopic internal standards, the analytes were trapped on an Xterra MS C18 column (10×2.1 mm i.d., 5 μm) and separated on a Gemini C18 column (50×2.0 mm i.d., 5 μm) using column-switching liquid chromatography. Electrospray ionization in the positive-ion mode and multiple reaction monitoring were used to quantify the analytes with transitions m/z 587.2>441.2 for TP300, 459.1>415.2 for 3076, and 475.1>361.1 for 3011. The inter- and intra-day precisions were below 12%, and the accuracy was between −16% and 16% at the lower limit of quantitation (LLOQ) and between −11% and 14% at the other quality controls. The LLOQs of TP300, TP3076, and TP3011 were 0.8, 0.04, and 0.04 ng/mL, respectively.
# Pharmacokinetic parameters derived from plasma concentration-time data of TP3076 or TP3011 by non-compartmental methods using WinNonlin (version 5.1; Pharsight Corp), included maximal plasma concentration (Cmax) and time of Cmax (Tmax), apparent plasma elimination half-life (t1/2), and the area under the curve (AUC). The urinary excretion ratio (fe) of TP3076 and TP3011 was calculated from the urinary concentration and volume up to 48 hours after administration, and the administration dose. The linearity of Cmax and AUC was determined with linear regression, analysis of variance and power model analysis. The sum of the AUCs of TP3076 and TP3011 was plotted against percentage (%) fall in nadir neutrophil count to explore the relationship between exposure and myelosuppression as a measure of anti-proliferative effect and a sigmoid Emax model fitted to the data: […]
# [3] = Single and repeat dose toxicity studies (preclinical); format: in vivo; conditions: most sensitive of the two species tested; equals 6 mg/m^2
# Protocol: as §1
# [4] = system: range of tumour types in vitro; set-up: method as in PMID 19495753; conditions: cited from earlier work
# [5] = system: tumours over-expressing the breast cancer resistance protein [BCRP]; set-up: method as in PMID 19495753; conditions: unlike SN38; cited from earlier work
# [6] = suspected treatment related adverse events within cycle 1, N = 32, all doses 1-12 mg/m^2
smiles,measurement,setting,value
"CCCCCN1C=Nc2cccc3nc4c(c1c23)Cn1c-4cc2c(c1=O)COC(=O)[C@@]2(CC)OC(=O)CN(C)C(=O)CN [TP300, glycine,glycyl-N-methyl-,(9S)-9-ethyl-9,10,13,15-tetrahydro-10,13-dioxo-1-pentyl-1H,12H-pyrano[3'',4'':6′,7′]indolizino[2′,1′:5,6]pyrido[4,3,2-de]quinazolin-9-yl ester, hydro-chloride]",DLTs (patients with DLT / patients dosed),[1]; 10 mg/m^2,3/12
same,DLTs (patients with DLT / patients dosed),[1]; 12 mg/m^2,2/4
same,MTD (maximum tolerated dose),"[1]; 1-hour i.v. infusion 3-weekly, patients with advanced solid tumors",10 mg/m^2
same,worst grade of diarrhoea,"[1]; 8 patients developed diarrhoea, all doses",≤ 2 grade
same,"time to diarrhoea after TP300 treatment, average",[1]; 8 patients with diarrhoea,9.5 days
same,"time to diarrhoea after TP300 treatment, range",[1]; 8 patients with diarrhoea,1 to 27 days
same,cholinergic effects,"[1]; 32 patients, all doses",no patient experienced cholinergic effects
same,patients discontinued due to toxicity,"[1]; 32 patients, all doses",4 patients
same,treatment-related deaths,"[1]; 32 patients, all doses",no treatment-related deaths
same,recommended Phase II starting dose,[1]; cycle 1,8 mg/m^2
same,recommended Phase II dose on subsequent cycles,[1]; escalation if initial treatment is well tolerated,10 mg/m^2
same,"Anaemia, All grade",[1]; [6],6 ( 19) No. (%)
same,"Anaemia, Grade 3",[1]; [6],2 ( 6) No. (%)
same,"Back pain, All grade",[1]; [6],1 ( 3) No. (%)
same,"Back pain, Grade 3",[1]; [6],1 ( 3) No. (%)
same,"Chills, All grade",[1]; [6],2 ( 6) No. (%)
same,"Chills, Grade 3",[1]; [6],1 ( 3) No. (%)
same,"Diarrhea, All grade",[1]; [6],8 ( 25) No. (%)
same,"Diarrhea, Grade 3",[1]; [6],0 (0) No. (%)
same,"Dyspnoea, All grade",[1]; [6],1 ( 3) No. (%)
same,"Dyspnoea, Grade 3",[1]; [6],1 ( 3) No. (%)
same,"Febrile neutropenia, All grade",[1]; [6],2 ( 6) No. (%)
same,"Febrile neutropenia, Grade 3",[1]; [6],2 ( 6) No. (%)
same,"Hepatorenal failure, All grade",[1]; [6],1 ( 3) No. (%)
same,"Hepatorenal failure, Grade 3",[1]; [6],1 ( 3) No. (%)
same,"Lethargy, All grade",[1]; [6],12 ( 38) No. (%)
same,"Lethargy, Grade 3",[1]; [6],4 ( 13) No. (%)
same,"Leukopenia, All grade",[1]; [6],3 ( 9) No. (%)
same,"Leukopenia, Grade 3",[1]; [6],3 ( 9) No. (%)
same,"Nausea, All grade",[1]; [6],13 ( 41) No. (%)
same,"Nausea, Grade 3",[1]; [6],0 (0) No. (%)
same,"Neutropenia, All grade",[1]; [6],6 ( 19) No. (%)
same,"Neutropenia, Grade 3",[1]; [6],6 ( 19) No. (%)
same,"Neutropenic sepsis, All grade",[1]; [6],1 ( 3) No. (%)
same,"Neutropenic sepsis, Grade 3",[1]; [6],1 ( 3) No. (%)
same,"Syncope, All grade",[1]; [6],1 ( 3) No. (%)
same,"Syncope, Grade 3",[1]; [6],1 ( 3) No. (%)
same,"Thrombocytopenia, All grade",[1]; [6],3 ( 9) No. (%)
same,"Thrombocytopenia, Grade 3",[1]; [6],3 ( 9) No. (%)
same,"Vomitting, All grade",[1]; [6],9 ( 28) No. (%)
same,"Vomitting, Grade 3",[1]; [6],0 (0) No. (%)
same,measured plasma concentrations 1.5 h after dose,"[2]; all doses, LLOQ of TP300 0.8 ng/mL",below the limit of the quantification
same,concentration at 1 h,[2]; TP300 2 mg/m^2,3.48 ng/mL
same,concentration at 1 h,[2]; TP300 8 mg/m^2,2.34 ng/mL
same,concentration at 1 h,[2]; TP300 10 mg/m^2,7.37 ng/mL
same,concentration at 1 h,[2]; TP300 12 mg/m^2,18.4 ng/mL
same,"dose tolerated without evidence of serious, irreversible or life-threatening toxicity",[3],0.3 mg/kg
same,activity across a range of tumour types in vitro,[4],activity at nanomolar concentrations
same,activity in tumours over-expressing BCRP,[5],appears active
